Measured values as given in US8383816B2, “Aryl-quinolyl compounds and their use” (Cancer Research Technology Limited, priority 2008, dated 2013).

What was measured:
pERK = assay: Cell Based Phospho-ERK Assay; settings: 6 h, cells incubated with test compound for 6 hours
Protocol: Biological Methods—Cell Based Phosho-ERK Assay
Compounds were assessed using a cell-based assay which was performed according to the following protocol.
Plate out 16,000 cells/well in 99 μL medium in a 96-well plate.
1. Add 1 μL inhibitor to the cells […].
2. Incubate the cells with test compound for 6 hours at 37° C.
3. Aspirate off the solution from all of the wells.
4. Fixate the cells with 100 μL 4% formaldehyde/0.25% Triton X-100 PBS per well.
5. Incubate the plate for 1 hour at 4° C.
6. Aspirate off the fixing solution and add 300 μL TBS per well.
7. Leave the plate overnight at 4° C.
1. Wash the plate 2× with 200 μL PBS per well.
2. Block with 100 μL 5% dried milk in TBS.
3. Incubate the plate for 20 minutes at 37° C.
4. Wash the plate 2× with 0.1% tween/H2O.
5. Add 50 μL of 3 μg/mL primary antibody pERK (Sigma M8159), diluted in 5% milk powder/TBS, to each well.
6. Incubate the plate for 2 hours at 37° C.
7. Wash the plate 3× with 0.1% tween/H2O.
8. Add 50 μL of 0.45 μg/mL secondary Europium-labelled anti-mouse antibody (Perkin Elmer) to each well.
9. Incubate the plate for 1 hour at 37° C.
10. Wash the plate 3× with 0.1% tween/H2O.
11. Add 100 μL enhancement solution (Perkin Elmer) to each well.
12. Leave the plate for approximately 10 minutes at room temperature before gently shaking the plate.
13. Read Europium Time Resolved Fluorescence in Victor2.
14. Wash the plate 2× with 0.1% tween/H2O.
15. Measure the protein concentration with BCA (Sigma) by adding 200 μL of solution per well.
16. Incubate the plate for 30 minutes at 37° C.
17. Read absorbance levels at 570 nm in a plate reader.
Note that Europium counts are normalised for protein levels by dividing counts by absorbance.
(§1) Values for the blank (no cells) are subtracted from all values. The DMSO controls are set as 100% activity and assay points (the response) are calculated as a percentage of the DMSO control. Data are plotted using Graphpad Prism software and a non-linear regression line is calculated using a variable slope sigmoidal dose-response equation (Y=Bottom+(Top−Bottom)/(1+10^((LogEC50−X)*HillSlope)) where X is the logarithm of concentration. Y is the response). The IC50 generated by this procedure is the concentration of the drug that produces a percentage control fluorescence value midway between the saturation, and zero-effect plateaus. Three independent assays are usually performed and the mean IC50 is reported.

WM266.4 melanoma cells = assay: SRB Cell Proliferation Assay (SRB GI50); assay type: cell-based; settings: Homo sapiens, WM 266-4, 144 h, 6 days growth
Protocol: Biological Methods—SRB Cell Proliferation Assay (SRB GI50)
Cultures of WM266.4 melanoma cells are routinely cultured in DMEM/10% foetal bovine serum, at 37° C., in 5% CO2 water saturated atmosphere. Cultures are maintained in exponential growth phase by sub-culturing before having become confluent (3-5 day intervals). Single cell suspensions are prepared by harvesting an 80 cm^2 tissue culture flask with 5 mL commercial trypsin EDTA. After 5 minutes, the detached cells are mixed with 5 mL fully complemented culture medium and centrifugally pelleted (1000 rpm for 7 minutes). After aspirating the supernatant, the cell pellet is re-suspended in 10 mL fresh medium and the cells fully disaggregated by drawing the whole volume up/down 5 times through a 19-gauge needle. The concentration of the cells is determined using a haemocytometer (1/10 dilution). A suitable volume to give at least a 2-fold excess for the number of tests being conducted, typically 100-200 mL, is prepared by diluting the cell suspension to 10,000/mL, and 100 μL/well dispensed into 96 well plates using a programmable 8-channel peristaltic pump, giving 1000 cells/well, leaving column 12 blank. The plates are returned to the incubator for 24 hours to allow the cells to re-attach.
The compounds being tested are prepared at 20 mM in dimethylsulphoxide. Aliquots (200 μL) are diluted into 20 mL culture medium giving 200 μM, and 10 serial dilutions of 3× performed by transferring 5 mL to 10 mL. Aliquots (100 μL) of each dilution are added to the wells, using an 8-channel pipettor, thus performing a final further 2× dilution, and giving doses ranging from 100 μM to 0.005 μM. Column 11 receives plain culture medium only. Each compound is tested in quadruplicate, each replicate being the average of four wells, and two plates per compound.
After a further 6 days growth, the plates are emptied, and the cells are fixed in 10% trichloroacteic acid for 10 minutes on ice. After thorough rinsing in running tap water, the plates are dried, and stained by adding 50 μL of a solution of 0.1% sulphorhodamine-B in 1% acetic acid, for 10 minutes at room temperature. The stain is poured out and the plates thoroughly rinsed under a stream of 1% acetic acid, thus removing unbound stain, and dried. The bound stain is taken into solution by addition of 150 μL Tris buffer pH 8, followed by 10 minutes on a plate-shaker (approximately 500 rpm). The absorbance at 540 nm in each well (being proportional to the number of cells present) is determined using a plate reader.
After averaging the results in rows A-D and E-H, the blank value (row 12) is subtracted, and results expressed as percentage of the untreated value (row 11). […] The GI50 generated by this procedure is the concentration of the drug that produces a percentage control A540 midway between the saturation, and zero-effect plateaus.

B-RAF = B-RAF (Homo sapiens, UniProt P15056, V600E); assay: DELFIA Kinase Assay; assay type: biochemical; settings: 100 μM ATP
Protocol: Biological Methods—DELFIA Kinase Assay
Compounds were assessed by a kinase assay performed according to the following protocol.
DELFIA Kinase Buffer (DKB):
DKB1 (DKB with B-RAF and MEK Protein):
Combine 4950 μL of DKB and 50 μL of 2.5 mg/ml GST-MEK stock (to give […] of MEK per 40 μL). Then add 22.5 μL of B-RAF to give ˜0.2 μL of B-RAF per 40 μL.
DKB2 (DKB with MEK Protein):
Combine 4950 μL of DKB and 50 μL of 2.5 mg/ml GST-MEK stock (to give 1 mg of MEK per 40 μL). Use 500 μL of this for the blow out (BO) and the empty vector (EV) control.
100 mM stock, dilute to 500 μM to give 100 μM final concentration in assay.
Inhibitors (Test Compounds):
Phospho-MEK½ CST #9121S diluted 1:1000 in DELFIA assay buffer (AB). Preincubate antibody in the AB for 30 minutes at room temperature prior to use.
Anti-rabbit-Eur labelled secondary Perkin Elmer #AD0105 diluted 1:1000 in DELFIA assay buffer (AB). Preincubate antibody in the AB for 30 minutes at room temperature prior to use. (Primary and secondary antibodies were incubated together.)
1. Preblock wells with 5% milk in TBS for 1 hour.
2. Wash wells with 3× with 200 μL TBS.
3. Plate out 40 μL of DKB1 for all inhibitors (test compounds), DMSO control, and optionally other control compounds.
4. Plate out 40 μL of DKB2 for BO and EV wells.
5. Add inhibitors (test compounds) at 0.5 μL per well according to desired plate layout.
6. Add 0.5 μL DMSO to vehicle control wells.
7. Add 2 μL of B-RAF to BO and EV wells.
8. Pre-incubate with inhibitors (test compounds) for 10 minutes at room temperature with shaking.
9. Add 10 μL of 500 μM ATP stock, in DKB, to give 100 μM assay concentration.
10. Seal plates with TopSeal and incubate at room temperature with shaking for 45 minutes.
11. Wash plates 3× with 200 μL 0.1% Tween20/Water to terminate reaction.
12. Add 50 μL per well of antibody mix and incubate for 1 hour at room temperature with shaking.
13. Wash plates 3× with 200 μL 0.1% Tween20/Water.
14. Add 100 μL DELFIA enhancement solution per well, cover in foil, and incubate at room temperature for 30 minutes with shaking.
15. Read on Victor using Europium protocol.
as §1, with “(Empty Vector)” for “(no cells)”

Chain of B-RAF (P15056 whole entry V600E): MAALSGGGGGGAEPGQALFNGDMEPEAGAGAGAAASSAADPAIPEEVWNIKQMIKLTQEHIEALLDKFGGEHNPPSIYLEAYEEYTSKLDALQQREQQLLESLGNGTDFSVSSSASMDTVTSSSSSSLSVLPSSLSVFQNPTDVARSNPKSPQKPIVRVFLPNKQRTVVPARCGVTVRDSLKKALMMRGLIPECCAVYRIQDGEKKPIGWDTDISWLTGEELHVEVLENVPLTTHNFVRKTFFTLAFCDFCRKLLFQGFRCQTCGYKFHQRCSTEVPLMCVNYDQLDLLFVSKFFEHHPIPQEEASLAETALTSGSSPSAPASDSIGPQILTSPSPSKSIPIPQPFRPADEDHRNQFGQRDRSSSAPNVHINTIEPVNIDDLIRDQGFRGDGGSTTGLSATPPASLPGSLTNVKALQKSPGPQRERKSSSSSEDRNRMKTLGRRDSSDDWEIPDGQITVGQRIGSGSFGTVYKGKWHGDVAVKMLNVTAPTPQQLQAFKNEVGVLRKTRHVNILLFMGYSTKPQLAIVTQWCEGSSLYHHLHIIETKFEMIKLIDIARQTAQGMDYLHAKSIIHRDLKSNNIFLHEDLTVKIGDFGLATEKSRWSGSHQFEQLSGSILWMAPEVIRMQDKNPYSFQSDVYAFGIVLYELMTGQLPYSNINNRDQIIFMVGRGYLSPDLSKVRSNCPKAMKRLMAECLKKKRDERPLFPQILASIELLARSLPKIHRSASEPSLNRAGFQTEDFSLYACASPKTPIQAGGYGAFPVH

Row | Structure (SMILES) | IC50 (pERK) | GI50 (WM266.4 melanoma cells) | IC50 (B-RAF)
1 | O=C(Nc1cc(C(F)(F)F)ccc1F)Nc1ccc(Oc2ccnc3[nH]c(=O)[nH]c23)c2cccnc12 [AA-010, 4-[(5-Oxy-quinolinyl-8-amino)carbonylamino-(2-fluoro-5-trifluoromethyl-phenyl)]-pyridin-5,6-imidazolone] | ≤ 10 µM | ≤ 10 µM | ≤ 1 µM
2 | Cn1c(=O)[nH]c2c(Oc3ccc(NC(=O)Nc4ccc(Cl)c(C(F)(F)F)c4)c4ncccc34)ccnc21 [AA-014, 5-[(8-Amino-quinolinyl-5-oxy)carbonylamino-3-(2-trifluoromethyl-3-chloro-phenyl)]-pyridin-[2,3]-N-methylimidazol-2-one] | ≤ 10 µM | ≤ 10 µM | ≤ 1 µM
3 | Cn1nc(C(C)(C)C)cc1NC(=O)Nc1ccc(Oc2ccnc3c2[nH]c(=O)n3C)c2cccnc12 [AA-017, 5-[(8-Amino-quinolinyl-5-oxy)carbonylamino-5-(1-methyl-3-t-butyl-imidazolyl)]-pyridin-[2,3]1-N-methylimidazol-2-one] | ≤ 10 µM | ≤ 10 µM | ≤ 1 µM
4 | Cn1c(=O)[nH]c2c(Oc3ccc(NC(=O)Nc4cccc(C(C)(C)C)c4)c4ncccc34)ccnc21 [AA-018, 5-[(8-Amino-quinolinyl-5-oxy)carbonylamino-3-(t-butyl-phenyl)]-pyridin-[2,3]1-N-methylimidazol-2-one] | ≤ 10 µM | ≤ 10 µM | ≤ 1 µM
5 | Cc1nc2c(Oc3ccc(NC(=O)Nc4cc(C(F)(F)F)ccc4F)c4ncccc34)ccnc2[nH]c1=O [BB-001, 5-[(8-Amino-quinolinyl-5-oxy)carbonylamino-(2-fluoro-5-trifloromethylphenyl)]-pyridin-[2,3]-3-methylpyrazin-2-one] | ≤ 10 µM | ≤ 10 µM | ≤ 1 µM
6 | Cc1nc2c(Oc3ccc(NC(=O)Nc4cc(C(C)(C)C)nn4-c4ccccc4)c4ncccc34)ccnc2[nH]c1=O [BB-003, 5-[(8-Amino-quinolinyl-5-oxy)carbonylamino-5-(1-N-p-phenyl-3-t-butyl-imidazolyl)]-pyridin-[2,3]-3-methylpyrazin-2-one] | ≤ 10 µM | ≤ 10 µM | ≤ 1 µM

Further lines, results first:

Row | IC50 (pERK) | GI50 (WM266.4 melanoma cells) | IC50 (B-RAF) | Structure (SMILES)
7 | ≤ 10 µM | ≤ 10 µM | ≤ 1 µM | O=C(Nc1cc(C(F)(F)F)ccc1F)Nc1ccc(Oc2ccnc3ncc(=O)[nH]c23)c2cccnc12 [BB-004, 5-[(8-Amino-quinolinyl-5-oxy)carbonylamino-5-(2-fluoro-5-trifluoromethyl-phenyl)]-pyridin-[2,3]pyrazin-3-one]
8 | ≤ 10 µM | ≤ 10 µM | ≤ 1 µM | O=C(Nc1cc(C(F)(F)F)ccc1F)Nc1ccc(Oc2ccnc3[nH]c(=O)cnc23)c2cccnc12 [BB-005, 5-[(8-Amino-quinolinyl-5-oxy)carbonylamino-5-(2-fluoro-5-trifluoromethyl-phenyl)]-pyridin-[2,3]pyrazin-2-one]
9 | ≤ 10 µM | ≤ 10 µM | ≤ 1 µM | Cc1nc2c(Oc3ccc(NC(=O)Nc4cc(C(C)(C)C)nn4C)c4ncccc34)ccnc2[nH]c1=O [BB-006, 5-[(8-Amino-quinolinyl-5-oxy)carbonylamino-5-(1-methyl-3-t-butyl-imidazolyl)]-pyridin-[2,3]-3-methylpyrazin-2-one]
10 | ≤ 10 µM | ≤ 10 µM | ≤ 1 µM | Cc1ccc(-n2nc(C(C)(C)C)cc2NC(=O)Nc2ccc(Oc3ccnc4[nH]c(=O)cnc34)c3cccnc23)cc1 [BB-007, 5-[(8-Amino-quinolinyl-5-oxy)carbonylamino-5-(1-N-p-tolyl-3-t-butyl-imidazolyl)]-pyridin-[2,3]pyrazin-2-one]
11 | ≤ 10 µM | ≤ 10 µM | ≤ 1 µM | CC(C)(C)c1cc(NC(=O)Nc2ccc(Oc3ccnc4[nH]c(=O)cnc34)c3cccnc23)n(-c2ccccc2)n1 [BB-008, 5-[(8-Amino-quinolinyl-5-oxy)carbonylamino-5-(1-N-phenyl-3-t-butyl-imidazolyl)]-pyridin-[2,3]pyrazin-2-one]
12 | ≤ 10 µM | ≤ 10 µM | ≤ 1 µM | C=CCn1nc(C(C)(C)C)cc1NC(=O)Nc1ccc(Oc2ccnc3[nH]c(=O)c(C)nc23)c2cccnc12 [BB-009]
13 | ≤ 10 µM | ≤ 10 µM | ≤ 1 µM | C#CCn1nc(C(C)(C)C)cc1NC(=O)Nc1ccc(Oc2ccnc3[nH]c(=O)c(C)nc23)c2cccnc12 [BB-011]
14 | ≤ 10 µM | ≤ 10 µM | ≤ 1 µM | C#CCn1nc(C(C)(C)C)cc1NC(=O)Nc1ccc(Oc2ccnc3[nH]c(=O)cnc23)c2cccnc12 [BB-012]
